Measurements as given in patent US7157092B1, “Acyl pseudodipeptides, preparation method and pharmaceutical compositions containing same” (Om Pharma, priority 1998, dated 2007).
Where “and” joins values, the source holds several entries; their conditions need not be identical. Equal entries are not always repeated.

System: TT antigen
Test: Subcutaneous immunization with TT antigen (tetanos toxoid): specific serum immunoglobulins (ELISA)
Assay type: in vivo, BALB/c mice
Settings: for adjuvant effect on titer of IgG1 and IgG2a antibodies specifically raised against TT: after one or two injections, FIGS. 28, 29; for Titer of immunoglobulins specifically directed against TT of IgM subclass (number of animals and dilution): dilution giving signal at 490 nm greater than mean ± 3 SD of group A; for Immunoglobulins specifically raised against TT of IgG1 subclass / Immunoglobulins specifically raised against TT of IgG2a subclass: s.c. injections days 0 and 14, adjuvant 50 μg per injection, ± SD
Method: To this end, 40 BALB/c mice (females, 8 weeks-old at the beginning of treatment) are divided into 4 groups as follows:
Antigen: A TT stock solution is prepared at a concentration of 0.2 mg/ml in 0.9% NaCl.
The negative control consists of a 0.9% NaCl solution without antigen.
Antigen-Adjuvant mixture: Adjuvants are allowed to stand for 20 minutes at 37° C. before vortex treatment for 3 minutes. Then the antigen and (0.9%) NaCl are added as specified in the above Table, and the antigen/adjuvant mixture is vortexed briefly before placing it on a rotary stirrer for 15 minutes at room temperature, then the whole mixture is vortexed for 3 minutes.
Immunization regimen: Injections are scheduelled on days 0 and 14. The mixtures stated in the preceeding table are administered by subcutaeous route (75 μl on the side, 150 μl in total per animal). Blood sampling is scheduelled on days 14 and 28 (orbital puncture).
Assay for anti-TT immunoglobulins: The following serum Immunolglobulins which are specifically directed against TT are assayed in duplicate by ELISA: IgG1, IgG2a, and IgM. Microtiter plates (NUNC Immunoplate, Roskilde, DK) are incubated (overnight coating) at 4° C. together with 100 μl TT (0.5 μg) in bicarbonate buffer (pH 9.6). After washing with 0.5% Tween-20 (Merck Hohenbrunn, D), sera are diluted 50-, 200- and 800-fold (diluting solution: phosphate buffered saline (PBS)+1% bovine serum albumin (BSA, Sigma, St. Louis, Mo., USA)+0.02% Tween-20)). 100 μl of each dilute serum sample are added to the wells. Incubation lasts 45 minutes at 37° C.
After a second washing step, IgG1, IgG2a and IgM specifically directed to ovalbumin are incubated for 30 minutes at 37° C. together with 100 μl of anti-IgG1 antibodies-peroxydase conjugate (Serotec, Oxford, UK), IgG2a-peroxydase conjugate (Pharmingen, San Diego, Calif., USA) and IgM-biotin conjugate (Pharmingen, San Diego, Calif., USA), diluted beforehand in PBS/BSA/Tween buffer (250-, 1000-, 500-fold dilutions, respectively). For IgM, after an extra washing step, a 3rd incubation step is required (30 min. at 37° C.) with a 1:100 dilute solution of streptavidin-peroxydase conjugate (Dako, Glostrup, DK).
After the washing step, 100 μl of a phenylene 1,2-diamine solution (OPD, Merck, Darmstadt, GFR) are added to detect peroxydase-coupled anti-IgG1 and anti-IgG2 secondary antibodies (whereas for IgM, the reagent being used is 3′, 3′, 5′,5′-tetramethylbenzidine (TMB, Sigma, St. Louis, Mo., USA). After a 20 minute incubation period at room temperature (40 min. for TMB), the reaction is stopped by adding 100 μl of 2N H2SO4. Absorbance values are read at 490 nm with a Bio-Rad 3550 model plate reader
Results of each reading at 490 nm when measuring IgG1 and IgG2a are given in arbitrary units (A.U.) per ml. This is achieved by comparing each sample with a standard prepared from different dilutions of a sample pool collected from the group B at day 28 (animals injected with TT alone). As this term implies, the sample pool diluted 50-fold is at a concentration of 1000 A.U./ml. Individual results are then corrected for the corresponding dilution factor (50, 200, or 800 fold). Only the mean values of each group and the standard deviation (SD) are herein reported.
Regarding the assay of IgM specific for TT, since the “background noise” of the assay was too high, no clear cut difference could be found between group B (TT alone) and groups C and D (TT with adjuvant) by measuring specific IgM as previously done for IgG1 and IgG2a. Instead, specific IgM titer could be determined, using successive dilutions of each sample (rather than A.U. described before) and the result was reported, for each sample, as the highest dilution which gives an absorbance reading greater than mean absorbance±3 SD for group A (NaCl).

CCCCCCCCCCCC(=O)O[C@H](CCCCCCCCCCC)CC(=O)NC(CCOP(=O)(O)O)C(=O)NCCCC(COP(=O)(O)O)NC(=O)C[C@H](O)CCCCCCCCCCC (stereo partly drawn) [OM-294-DP, 3-[(R)-3-dodecanoyloxytetradecanoylamino]-4-oxo-5-aza-9-[(R)-3-hydroxytetradecanoylamino]decan-1,10-diol 1, 10-bis(dihydrogenphosphate)]
adjuvant effect on titer of IgG1 and IgG2a antibodies specifically raised against TT: often significantly increase the titer of IgG1 and IgG2a antibodies

CCCCCCCCCCCC(=O)O[C@H](CCCCCCCCCCC)CC(=O)NC(CCOP(=O)(O)O)C(=O)NCCCC(CO)NC(=O)C[C@H](O)CCCCCCCCCCC (stereo partly drawn) [OM-294-MP, 3-[(R)-3-dodecanoyloxytetradecanoylamino]-4-oxo-5-aza-9-[(R)-3-hydroxytetradecanoylamino]-decane-1,10-diol 1-dihydrogenphosphate]
adjuvant effect on titer of IgG1 and IgG2a antibodies specifically raised against TT: often significantly increase the titer of IgG1 and IgG2a antibodies

TT: TT antigen (tetanos toxoid, Massachussetts Biologic Laboratoires), injected alone
Titer of immunoglobulins specifically directed against TT of IgM subclass (number of animals and dilution) (Day 14): 9 animals < 25 and 1 animal < 50 | Immunoglobulins specifically raised against TT of IgG1 subclass (Day 14): 2871 ± 1633 Arbitrary units/ml | Immunoglobulins specifically raised against TT of IgG2a subclass (Day 14): 2547 ± 2539 Arbitrary units/ml | Titer of immunoglobulins specifically directed against TT of IgM subclass (number of animals and dilution) (Day 28): 10 animals < 25 | Immunoglobulins specifically raised against TT of IgG1 subclass (Day 28): 34367 ± 15018 Arbitrary units/ml | Immunoglobulins specifically raised against TT of IgG2a subclass (Day 28): 61387 ± 82269 Arbitrary units/ml
